Test results from article PMC9537541, “Synthesis and anticancer activity of new benzensulfonamides incorporating s-triazines as cyclic linkers for inhibition of carbonic anhydrase IX” (Scientific Reports, 2022).
“Also recorded” adds a separate entry of the source.

What was measured:
caspase 9 = assay: Western blot of caspase 9 in MDA-MB-468 cells; assay type: cell-based
Source text: (§1) Caspases, cysteine-containing aspartic acid-specific proteases, afford essential factors in cell networks that control and regulate death of the cell. Caspase-3 is a vital executioner protease which is triggered by cascade of initiator caspases such as caspase-9 [49]. This study was further extended to explore the apoptosis mechanism of compound 12d upon breast cancer, MDA-MB-468, cells by measuring the expression of apoptosis biomarkers (cleaved caspase 3 and caspase 9) via Gel electrophoresis and immune-blot analysis of proteins (Western Blot) using β-actin to normalize the loading. […] Accordingly, compound 12d have the ability to induce apoptosis in MDA-MB-468 cancer cells probably by pathways involving both caspase3 and caspase9.
(§2) MDA-MB-468 cells, were harvested on dishes of cell culture and treated for 24 h with compound 12d. An equal amount of protein transferred to PVDF membranes after separated by SDS-PAGE (5–15%). Skim milk with concentration 5% was used to block the blotted membranes for 1 h before being incubated with the desired primary antibodies at 37 °C for 1 h. Colorimetric technique was used to visualize immune reactive bands using Geldoc-it, UVP, England. To quantify equal loading, membrane was reseeded with β-actin antibody.
(§3) Eelectrophoresed proteins on SDS-PAGE were transferred to a Hybond™ nylon membrane (GE Healthcare) via TE62 Standard transfer tank with Cooling Chamber (Hoefer Inc. and incubate for 1 hour at room temperature in Blocking Solution. Additionally, β-actin (abcam, ab8227) was applied as housekeeping protein.
(§4) - Membrane was incubated the overnight at 4°C in antibody solution containing caspase isoform (Cell Signalling) separately for each antibody.
(§5) - Colorimetric technique was used to visualize immune reactive bands using Geldoc-it, UVP, England. Each experiment was run in triplicate.

leukemia (RPMI-8226) = assay: NCI single dose SRB screen, RPMI-8226; assay type: cell-based; settings: 10 µM single dose
Experimental: (§6) Target compounds in series (A) and (B), were submitted to the National Cancer Institute (NCI) Developmental Therapeutic Program (www.dtp.nci.nih.gov), where they have been assessed, in vitro for their anticancer activity. Two series (A) and (B), were screened in a single dose (10 µM) versus full panel composed of 60 cancer cell lines, in accordance with protocol of drug evaluation branch, NCI, Bethesda. Sulforhodamine B (SRB) colorimetric assay was used to determine cell growth and viability,[40].
(§7) Protocol of Drug Evaluation Branch, NCI, Bethesda, was adopted in the antitumor assay. Assessment of cell growth and viability was carried out utilizing SRB assay and 48 h drug exposure protocol as previously reported,[40].

breast cancer (T-47D) = assay: NCI single dose SRB screen, T-47D; assay type: cell-based; settings: 10 µM single dose
Experimental: as §6, §7

[1] = tested on: MDA-MB-468 breast cancer cells; assay: cell cycle analysis by flow cytometry; assay type: cell-based; settings: 24 h at IC50 concentration (3.99 µM)
Source text: Cell cycle is composed of four distinct phases: G1, S, G2, and M[45]. Flow cytometry analysis of DNA ploidy in MDA-MB-468 breast cancer cells was used to evaluate the influence of compound 12d on normal cell cycle progression. […] Apoptosis and DNA fragmentation are possible mechanisms for 12d-induced cancer cell death based on the observed high increase in a pre-G1 cell population by 20 fold compared to the control.
The treated cells were centrifuged and maintained in ice-cold ethanol (70%) before being washed again with PBS and then re-suspended in RNase ([…]) followed by staining with 40 µg/mL PI, and analyzed by flow cytometry technique using a FACS Calibur (Becton Dickinson,BD, USA). Cell cycle distribution were calculated via CellQuest software 5.1 (Becton Dickinson),[63].

[2] = tested on: Breast cancer (MDA-MB-468); assay: anti-proliferative activity under hypoxic condition (MTT), MDA-MB-468; assay type: cell-based
Experimental: (§8) All cells were incubated in hypoxic atmosphere (1% O2, 5% CO2, and 94%N2) and maintained at 37 °C. All procedures to determine compounds cytotoxicity were accomplished using MTT assay as reported,[59],[60].

Leukemia (CCRF-CEM) = assay: NCI single dose SRB screen, CCRF-CEM; assay type: cell-based; settings: normoxic condition (5% CO2, 95% air at 37 °C), NCI protocol
Experimental: as §6, §7

hCA II = molecular target: T1, hCA II (Homo sapiens, UniProt P00918); assay: stopped-flow CO2 hydrase assay, hCA II; assay type: biochemical; settings: stopped flow technique, mean from 3 different assays
T1 construct: made in house
Experimental: (§9) Target compounds of series (A) and (B) were screened as inhibitors concerning the physiologically relevant hCAs; cytosolic isoforms (hCA I and II) in addition to the transmembrane tumor related isoforms (hCA IX and XII) via a stopped-flow assay of carbonic anhydrase catalyzed CO2 hydration. Acetazolamide (AAZ), CA I drug, was also incorporated in the assays as a standard drug. […] Four CA isoforms inhibition activity was measured by assaying CA catalyzed CO2 hydration via an applied photophysics stopped-flow instrument. PRISM 3 and the Cheng-prusoff equation were used to determine the inhibition constant by non-linear least square methods as reported, and represent the mean from three different determination at least. All tested carbonic anhydrase isoforms were recombinant proteins prepared in lab as described earlier,[57].

caspase 3 = assay: Western blot of caspase 3 in MDA-MB-468 cells; assay type: cell-based
Source text: as §1, §2, §3, §4, §5

[3] = tested on: MDA-MB-468 breast cancer cells; assay: Annexin V-FITC/propidium iodide apoptosis assay; assay type: cell-based
Experimental: Apoptosis of tumor cells is the principal therapeutic objective of antiproliferative agents. The apoptotic induction potential of 12d in MDA-MB-468 cells were assessed using the Annexin V/propidium iodide double staining assay,[48].
Cells apoptosis further analyzed by measuring phosphatidylserine externalization using V-FITC/PI apoptosis detection kit (BD Biosciences, USA) according manufacturer's instructions, as reported,[62].

hCA IX = molecular target: T2, hCA IX (Homo sapiens, UniProt Q16790); assay: stopped-flow CO2 hydrase assay, hCA IX; assay type: biochemical; settings: for Selectivity index (SI) I/IX: hCA IX over off-target hCA I; for Selectivity index (SI) II/IX: hCA IX over off-target hCA II; for Ki: stopped flow technique, mean from 3 different assays
T2 construct: made in house
Experimental: as §9

[4] = tested on: Breast cancer (MDA-MB-468); assay: NCI single dose SRB screen, MDA-MB-468; assay type: cell-based; settings: for inhibition at 10 µM: Homo sapiens, MDA-MB-468, 48 h, 10^−5 M single dose, 48 h, SRB, read-out: GI% Breast cancer (MDA-MB-468)
Experimental: as §6, §7

[5] = tested on: normal human embryonic kidney cells (HEK-293); assay: normal cell line cytotoxicity (MTT), HEK-293; assay type: cell-based
Experimental: All data was collected in triplicate, and IC50 values were calculated as the average of three separate trials.

leukemia (CCRF-CM) = assay: anti-proliferative activity under hypoxic condition (MTT), CCRF-CM; assay type: cell-based; settings: for IC50: hypoxic conditions (1%O2, 5% CO2 and 94% N2), mean ± S.D. of three experiments
Experimental: as §8

Leukemia (SR) = assay: NCI single dose SRB screen, SR; assay type: cell-based; settings: 48 h, 10^−5 M single dose, read-out: GI% Leukemia (SR)
Experimental: as §6, §7

hCA XII = molecular target: T3, hCA XII (Homo sapiens, UniProt O43570); assay: stopped-flow CO2 hydrase assay, hCA XII; assay type: biochemical; settings: for Selectivity index (SI) I/XII: hCA XII over off-target hCA I; for Selectivity index (SI) II/XII: hCA XII over off-target hCA II; for Ki: stopped flow technique, mean from 3 different assays
T3 construct: made in house
T3 sequence (O43570 25-354): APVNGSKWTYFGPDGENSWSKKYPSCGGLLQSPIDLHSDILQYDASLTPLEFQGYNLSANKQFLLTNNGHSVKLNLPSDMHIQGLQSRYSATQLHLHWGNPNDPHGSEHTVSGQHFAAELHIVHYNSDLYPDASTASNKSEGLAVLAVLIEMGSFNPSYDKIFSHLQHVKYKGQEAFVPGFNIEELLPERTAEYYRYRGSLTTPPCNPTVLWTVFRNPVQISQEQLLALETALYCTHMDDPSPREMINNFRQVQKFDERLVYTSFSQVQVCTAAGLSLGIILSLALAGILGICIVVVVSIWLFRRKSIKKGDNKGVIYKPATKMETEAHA
Experimental: as §9

hCA I = molecular target: T4, hCA I (Homo sapiens, UniProt P00915); assay: stopped-flow CO2 hydrase assay, hCA I; assay type: biochemical; settings: stopped flow technique, mean from 3 different assays
T4 construct: made in house
T4 sequence (P00915 whole entry): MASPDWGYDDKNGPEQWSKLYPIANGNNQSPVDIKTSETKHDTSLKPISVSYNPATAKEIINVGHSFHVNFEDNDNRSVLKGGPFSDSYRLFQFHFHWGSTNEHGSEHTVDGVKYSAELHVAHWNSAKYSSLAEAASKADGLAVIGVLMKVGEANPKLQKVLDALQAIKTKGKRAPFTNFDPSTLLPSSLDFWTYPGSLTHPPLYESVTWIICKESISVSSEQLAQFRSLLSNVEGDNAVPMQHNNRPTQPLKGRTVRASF
Experimental: as §9

Renal cancer (UO-31) = assay: NCI single dose SRB screen, UO-31; assay type: cell-based; settings: Homo sapiens, UO-31, 48 h, 10^−5 M single dose, read-out: GI% Renal cancer (UO-31)
Experimental: as §6, §7

CNS cancer (SNB-75) = assay: NCI single dose SRB screen, SNB-75; assay type: cell-based; settings: Homo sapiens, SNB-75, 48 h, 10^−5 M single dose, read-out: GI% CNS cancer (SNB-75)
Experimental: as §6, §7

[6] = Western blot, β-actin normalised
[7] = hypoxic condition (1% O2, 5% CO2, and 94%N2 at 37 °C)

## CN(C)c1ccc(/C=C(\C#N)c2nc(N)nc(Nc3ccc(S(N)(=O)=O)cc3)n2)cc1 [Compound 12d, 4-({4-Amino-6-[(1E)-1-cyano-2-[4-(dimethylamino)phenyl]eth-1-en-1-yl]-1,3,5-triazin-2-yl}amino)benzene-1-sulfonamide]
Caspase 9; [6]
  cleaved caspase 9 expression relative to the control: increasing the level; also recorded: significant activation
Caspase 9; treated 24 h, three replicates, control 40.53 ± 0.008
  Expression level of procaspase 9, Lane %, Mean ± SD: 25.30 ± 0.004%
Caspase 9; treated, first of two band lines (35/37 KDa), control 6.75 ± 0.008
  Expression level of cleaved caspase 9, Lane %, Mean ± SD, first line: 6.04 ± 0.012%
Caspase 9; treated, second of two band lines (35/37 KDa), control 14.32 ± 0.004
  Expression level of cleaved caspase 9, Lane %, Mean ± SD, second line: 21.59 ± 0.004%
Leukemia (RPMI-8226)
  GI% leukemia (RPMI-8226): ≥ 50%
Breast cancer (T-47D)
  GI% breast cancer (T-47D): ≥ 50%
[1]
  cell cycle arrest phases: G0-G1 and S phases
  increase in pre-G1 cell population compared to the control: 20 fold
[2]; Homo sapiens, MDA-MB-468, hypoxic conditions (1%O2, 5% CO2 and 94% N2), mean ± S.D. of three experiments
  IC50: 3990 ± 210 nM
[2]; [7]
  GI% Hypoxia MDA-MB-468: 59.38%
Leukemia (CCRF-CEM)
  GI% Normoxia CCRF-CM: 52.61%
hCA II
  Ki: 364 nM
Caspase 3; [6]
  cleaved caspase 3 expression relative to the control: increasing the level; also recorded: significant activation
Caspase 3; treated 24 h, three replicates, control 42.52 ± 0.013
  Expression level of procaspase 3, Lane %, Mean ± SD: 27.81 ± 0.008%
Caspase 3; treated, first of two band lines (17/19 KDa), control 4.91 ± 0.017
  Expression level of cleaved caspase 3, Lane %, Mean ± SD, first line: 6.88 ± 0.008%
Caspase 3; treated, second of two band lines (17/19 KDa), control 13.59 ± 0.0
  Expression level of cleaved caspase 3, Lane %, Mean ± SD, second line: 22.42 ± 0.0%
[3]; annexin V-FITC positive cells
  total increase in apoptotic cells compared to the control: about 20 fold
[3]; annexin V-FITC/PI, control 0.11%
  apoptotic cells in late apoptosis phase (UR): 17.66%
[3]; annexin V-FITC/PI, control 0.39%
  apoptotic cells in early stage (LR): 2.76%
hCA IX
  Selectivity index (SI) I/IX: 3
  Selectivity index (SI) II/IX: 2
  Ki: 190 nM
[4]
  inhibition at 10 µM: ≥ 50%
[4]; normoxic condition (5% CO2, 95% air at 37 °C), NCI protocol
  GI% Normoxia MDA-MB-468: 61.39%
[5]; Homo sapiens, HEK293, normal cells, mean ± SD of three independent experiments
  IC50: 68100 ± 3720 nM
[5]; cancer versus normal cells
  safety index relative to staurosporine: about twofold
Leukemia (CCRF-CM); [7]
  GI% Hypoxia CCRF-CM: 55.82%
Leukemia (CCRF-CM)
  IC50: 4510 ± 240 nM
Leukemia (SR)
  inhibition at 10 µM: ≥ 50%
hCA XII
  Selectivity index (SI) I/XII: 3
  Selectivity index (SI) II/XII: 2
  Ki: 188 nM
hCA I
  Ki: 577 nM

## CN[C@@H]1C[C@H]2O[C@@](C)([C@@H]1OC)n1c3ccccc3c3c4c(c5c6ccccc6n2c5c31)C(=O)NC4 [Staurosporine, reference compound]
Leukemia (CCRF-CM)
  IC50: 2170 ± 110 nM

## N#C/C(=C\c1ccc(F)cc1)c1nc(N)nc(Nc2ccc(S(N)(=O)=O)cc2)n1 [Compound 12f., 4-({4-Amino-6-[(1E)-1-cyano-2-(4-fluorophenyl)eth-1-en-1-yl]-1,3,5-triazin-2-yl}amino)benzene-1-sulfonamide]
Renal cancer (UO-31)
  inhibition at 10 µM: 15%
other
  melting point: 234 to 236 °C
hCA II
  Ki: 493 nM
hCA IX
  Selectivity index (SI) I/IX: 3
  Selectivity index (SI) II/IX: 2.5
  Ki: 195 nM
[4]
  inhibition at 10 µM: 15%
CNS cancer (SNB-75)
  inhibition at 10 µM: 10%
Leukemia (SR)
  inhibition at 10 µM: 11%
hCA XII
  Selectivity index (SI) I/XII: 0.1
  Selectivity index (SI) II/XII: 0.1
  Ki: 4200 nM
hCA I
  Ki: 590 nM
